Results from ChEMBL document CHEMBL1132633, “Secondary structure peptide mimetics: design, synthesis, and evaluation of beta-strand mimetic thrombin inhibitors” (J Med Chem, 1999).
Blank lines part the entries; values can stand above or below the molecule they belong to.

Assays:
[1] = target: T1, Prothrombin (Homo sapiens, UniProt P00734)
Description: Inhibitory constant on rate against thrombin.

[2] = target: T2, Serine protease 1 (Bos taurus, UniProt P00760); assay: Inhibitory concentration against trypsin.
T2 sequence (P00760 whole entry): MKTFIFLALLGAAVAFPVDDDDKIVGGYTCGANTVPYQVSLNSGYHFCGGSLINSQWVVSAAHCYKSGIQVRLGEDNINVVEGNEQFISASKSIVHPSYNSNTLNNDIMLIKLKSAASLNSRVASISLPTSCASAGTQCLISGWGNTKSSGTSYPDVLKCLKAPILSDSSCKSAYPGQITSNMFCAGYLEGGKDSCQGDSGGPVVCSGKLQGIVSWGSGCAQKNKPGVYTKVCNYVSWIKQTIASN

[3] = target: T1, Prothrombin; assay: Inhibitory concentration against thrombin.
[4] = target: T3, Tissue-type plasminogen activator (Homo sapiens, UniProt P00750); assay: Inhibitory concentration against Tissue type plasminogen activator
[5] = target: T4, Coagulation factor X (Homo sapiens, UniProt P00742); assay: Inhibition constant against Coagulation factor Xa
[6] = target: Urokinase-type plasminogen activator (Homo sapiens, UniProt P00749); assay: Inhibitory concentration against Urokinase-type plasminogen activator
[7] = target: T5, Coagulation factor VII (Homo sapiens, UniProt P08709); assay: Inhibition constant against coagulation factor VIIa
T5 sequence (P08709 whole entry): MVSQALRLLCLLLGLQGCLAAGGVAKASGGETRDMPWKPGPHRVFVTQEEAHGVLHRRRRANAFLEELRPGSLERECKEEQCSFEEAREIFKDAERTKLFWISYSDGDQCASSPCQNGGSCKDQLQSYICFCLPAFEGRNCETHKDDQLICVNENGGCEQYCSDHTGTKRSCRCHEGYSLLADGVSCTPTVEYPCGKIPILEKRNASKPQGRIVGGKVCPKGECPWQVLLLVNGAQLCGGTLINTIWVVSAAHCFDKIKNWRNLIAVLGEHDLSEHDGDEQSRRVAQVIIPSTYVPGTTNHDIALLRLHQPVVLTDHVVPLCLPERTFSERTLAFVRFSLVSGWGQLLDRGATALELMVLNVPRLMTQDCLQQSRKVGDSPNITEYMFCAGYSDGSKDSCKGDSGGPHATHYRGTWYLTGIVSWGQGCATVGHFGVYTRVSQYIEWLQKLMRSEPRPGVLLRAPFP

[8] = target: T6, Plasminogen (Rattus norvegicus, UniProt Q01177); assay: Inhibition constant against plasmin
[9] = target: T6, Plasminogen; assay: Inhibitory concentration against plasmin
[10] = target: T4, Coagulation factor X; assay: Inhibitory concentration against Coagulation factor Xa
[11] = target: T5, Coagulation factor VII; assay: Inhibitory concentration against coagulation factor VIIa
[12] = target: T3, Tissue-type plasminogen activator; assay: Compound was evaluated for the inhibition of Tissue type plasminogen activator (tissue plasminogen activator)

T6 sequence (Q01177 97-581 limits assumed): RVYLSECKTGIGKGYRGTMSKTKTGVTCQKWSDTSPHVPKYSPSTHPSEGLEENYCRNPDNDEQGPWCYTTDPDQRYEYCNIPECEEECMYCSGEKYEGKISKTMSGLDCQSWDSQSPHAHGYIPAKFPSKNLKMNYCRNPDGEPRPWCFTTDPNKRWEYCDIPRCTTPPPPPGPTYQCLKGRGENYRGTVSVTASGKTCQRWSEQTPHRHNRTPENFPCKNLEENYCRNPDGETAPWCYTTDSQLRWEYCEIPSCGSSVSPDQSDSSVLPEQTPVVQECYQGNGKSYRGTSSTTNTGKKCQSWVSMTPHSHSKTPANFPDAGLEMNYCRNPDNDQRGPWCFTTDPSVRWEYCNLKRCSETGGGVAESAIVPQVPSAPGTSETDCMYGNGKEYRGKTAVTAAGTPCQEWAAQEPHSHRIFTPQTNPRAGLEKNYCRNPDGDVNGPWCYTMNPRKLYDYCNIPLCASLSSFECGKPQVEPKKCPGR
T6 sequence (Q01177 582-812 limits assumed): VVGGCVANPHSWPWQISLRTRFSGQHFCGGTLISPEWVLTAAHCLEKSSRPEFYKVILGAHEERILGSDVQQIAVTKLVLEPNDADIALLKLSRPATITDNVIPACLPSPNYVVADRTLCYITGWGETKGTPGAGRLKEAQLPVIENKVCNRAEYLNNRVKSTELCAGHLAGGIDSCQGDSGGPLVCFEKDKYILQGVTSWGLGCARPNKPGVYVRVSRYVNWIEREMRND
T3 sequence (P00750 whole entry): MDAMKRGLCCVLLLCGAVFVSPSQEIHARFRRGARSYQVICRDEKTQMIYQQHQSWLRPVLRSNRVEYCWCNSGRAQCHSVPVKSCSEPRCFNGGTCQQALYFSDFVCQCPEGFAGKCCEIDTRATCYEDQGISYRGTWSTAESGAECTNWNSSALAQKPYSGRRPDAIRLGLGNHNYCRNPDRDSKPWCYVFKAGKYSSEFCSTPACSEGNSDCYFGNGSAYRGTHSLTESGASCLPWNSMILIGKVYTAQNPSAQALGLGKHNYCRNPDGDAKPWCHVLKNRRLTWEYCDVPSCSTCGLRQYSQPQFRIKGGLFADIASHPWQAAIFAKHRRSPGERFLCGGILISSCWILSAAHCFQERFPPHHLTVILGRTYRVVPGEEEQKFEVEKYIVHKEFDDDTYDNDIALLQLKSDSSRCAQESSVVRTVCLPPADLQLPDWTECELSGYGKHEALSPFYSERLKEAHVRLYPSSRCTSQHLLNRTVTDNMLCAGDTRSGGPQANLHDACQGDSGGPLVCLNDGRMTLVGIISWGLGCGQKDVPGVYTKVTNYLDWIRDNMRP
T4 sequence (P00742 41-179 limits assumed): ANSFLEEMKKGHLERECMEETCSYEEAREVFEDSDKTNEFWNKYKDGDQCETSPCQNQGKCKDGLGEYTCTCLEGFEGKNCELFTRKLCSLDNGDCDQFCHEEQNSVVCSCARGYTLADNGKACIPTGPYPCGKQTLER
T4 sequence (P00742 235-488 limits assumed): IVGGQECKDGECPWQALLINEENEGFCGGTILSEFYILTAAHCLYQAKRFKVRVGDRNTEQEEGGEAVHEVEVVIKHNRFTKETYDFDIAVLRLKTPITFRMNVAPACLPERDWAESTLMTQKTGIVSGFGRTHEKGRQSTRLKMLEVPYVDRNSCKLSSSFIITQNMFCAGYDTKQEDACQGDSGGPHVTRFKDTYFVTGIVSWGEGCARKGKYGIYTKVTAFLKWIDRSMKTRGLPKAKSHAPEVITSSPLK

- k on [1]: 640000 M⁻¹ s⁻¹
- Ki [2]: 0.027 nM
- Ki [3]: 0.071 nM
SMILES: N=C(N)NCCC[C@H](NC(=O)[C@@H]1CCN2CC[C@@](N)(Cc3ccccc3)CN12)C(=O)C(=O)NCCc1ccccc1

- k on [1]: 880000 M⁻¹ s⁻¹
SMILES: N=C(N)NCCC[C@H](NC(=O)[C@@H]1CCN2CC[C@@](N)(Cc3ccccc3)CN12)C(=O)C(=O)NCc1ccccc1

- k on [1]: 250000 M⁻¹ s⁻¹
SMILES: COc1ccc(CCNC(=O)C(=O)[C@H](CCCN=C(N)N)NC(=O)[C@@H]2CCN3CC[C@@](N)(Cc4ccccc4)CN23)cc1

- Ki [3]: 2000 nM
SMILES: NCCCC[C@H](NC(=O)[C@@H]1CCN2CC[C@@](N)(Cc3ccccc3)CN12)C(=O)C(=O)NCc1ccccc1

- k on [1]: > 1e+07 M⁻¹ s⁻¹
- Ki [3]: 2.4 nM
SMILES: N=C(N)NCCC[C@H](NC(=O)[C@@H]1CCN2CC[C@@](N)(Cc3ccccc3)CN12)C(=O)c1nccs1

- k on [1]: 380000 M⁻¹ s⁻¹
- Ki [3]: 0.31 nM
SMILES: N=C(N)NCCC[C@H](NC(=O)[C@@H]1CCN2CC[C@@](N)(Cc3ccccc3)CN12)C(=O)C(=O)NCCc1ccc(Cl)cc1

- Ki [3]: 0.45 nM
SMILES: COc1ccc(CCNC(=O)C(=O)[C@H](CCCNC(=N)N)NC(=O)[C@@H]2CCN3CC[C@@](N)(Cc4ccccc4)CN23)cc1

Continued, molecule first:

SMILES: N=C(N)NCCC[C@H](NC(=O)[C@@H]1CCC2CC[C@@](N)(Cc3ccccc3)CN21)C(=O)c1nc2ccccc2s1 (stereo in doubt; form 2) [listing 1 of 2 here]
- Ki [4]: 93 nM
- Ki [5]: 19.3 nM
- Ki [2]: 0.23 nM
- Ki [3]: 0.85 nM
- Ki [6]: 335 nM
- Ki [7]: 200 nM
- Ki [8]: 251 nM

SMILES: N=C(N)NCCC[C@@H](CCl)NC(=O)[C@@H]1CCN2CC[C@@](N)(Cc3ccccc3)CN12
- IC50 [4]: 632 nM
- IC50 [9]: 978 nM
- IC50 [10]: 385 nM
- k on [1]: 2.4e+06 M⁻¹ s⁻¹
- IC50 [3]: 1.2 nM
- IC50 [11]: 140 nM
- IC50 [6]: 927 nM

SMILES: N=C(N)NCCC[C@H](NC(=O)[C@@H]1CCC2CC[C@@](N)(Cc3ccccc3)CN21)C(=O)c1nc2ccccc2s1 (stereo in doubt; form 1) [listing 1 of 2 here]
- k on [1]: > 1e+07 M⁻¹ s⁻¹

SMILES: NC(N)=NCCC[C@@H](CCl)NC(=O)[C@@H]1CCCN1C(=O)[C@H](N)Cc1ccccc1
- IC50 [9]: 699 nM
- IC50 [10]: 165 nM
- IC50 [3]: 1.5 nM
- IC50 [11]: 200 nM
- IC50 [6]: 508 nM
- IC50 [12]: 106 nM

SMILES: N=C(N)NCCC[C@H](NC(=O)[C@@H]1CCC2CC[C@@](N)(Cc3ccccc3)CN21)C(=O)c1nc2ccccc2s1 (stereo in doubt; form 2) [listing 2 of 2 here]
- k on [1]: > 1e+07 M⁻¹ s⁻¹

SMILES: N=C(N)NCCC[C@H](NC(=O)[C@@H]1CCC2CC[C@@](N)(Cc3ccccc3)CN21)C(=O)c1nc2ccccc2s1 (stereo in doubt; form 1) [listing 2 of 2 here]
- Ki [3]: 10 nM

SMILES: N=C(N)NCCC[C@H](NC(=O)[C@@H]1CCN2CC[C@@](N)(Cc3ccccc3)CN12)C(=O)c1nc2ccccc2s1
- Ki [4]: 495 nM
- k on [1]: > 1e+07 M⁻¹ s⁻¹
- Ki [5]: 270 nM
- Ki [2]: 0.64 nM
- Ki [6]: 600 nM
- Ki [7]: 270 nM
- Ki [8]: 415 nM
